Assay [1] has as its system RAW264.7. As to the kind of experiment: cells. The conditions noted are these: Mus musculus.
Description: Antiinflammatory activity against mouse RAW264.7 cells assessed as reduction of LPS-induced NO production
Assay [2] relates to RAW264.7.
Description: (§1) Antiinflammatory activity against mouse RAW264.7 cells assessed as reduction of LPS-induced TNF-alpha production
For assay [3], the system named is RAW264.7. Kind of assay: cells. The conditions noted are these: Mus musculus. The source holds these as a separate data set.
Description: as §1
The target of assay [4] is T1, Receptor-type tyrosine-protein kinase FLT3 (Homo sapiens, UniProt P36888).
T1 sequence (P36888 whole entry): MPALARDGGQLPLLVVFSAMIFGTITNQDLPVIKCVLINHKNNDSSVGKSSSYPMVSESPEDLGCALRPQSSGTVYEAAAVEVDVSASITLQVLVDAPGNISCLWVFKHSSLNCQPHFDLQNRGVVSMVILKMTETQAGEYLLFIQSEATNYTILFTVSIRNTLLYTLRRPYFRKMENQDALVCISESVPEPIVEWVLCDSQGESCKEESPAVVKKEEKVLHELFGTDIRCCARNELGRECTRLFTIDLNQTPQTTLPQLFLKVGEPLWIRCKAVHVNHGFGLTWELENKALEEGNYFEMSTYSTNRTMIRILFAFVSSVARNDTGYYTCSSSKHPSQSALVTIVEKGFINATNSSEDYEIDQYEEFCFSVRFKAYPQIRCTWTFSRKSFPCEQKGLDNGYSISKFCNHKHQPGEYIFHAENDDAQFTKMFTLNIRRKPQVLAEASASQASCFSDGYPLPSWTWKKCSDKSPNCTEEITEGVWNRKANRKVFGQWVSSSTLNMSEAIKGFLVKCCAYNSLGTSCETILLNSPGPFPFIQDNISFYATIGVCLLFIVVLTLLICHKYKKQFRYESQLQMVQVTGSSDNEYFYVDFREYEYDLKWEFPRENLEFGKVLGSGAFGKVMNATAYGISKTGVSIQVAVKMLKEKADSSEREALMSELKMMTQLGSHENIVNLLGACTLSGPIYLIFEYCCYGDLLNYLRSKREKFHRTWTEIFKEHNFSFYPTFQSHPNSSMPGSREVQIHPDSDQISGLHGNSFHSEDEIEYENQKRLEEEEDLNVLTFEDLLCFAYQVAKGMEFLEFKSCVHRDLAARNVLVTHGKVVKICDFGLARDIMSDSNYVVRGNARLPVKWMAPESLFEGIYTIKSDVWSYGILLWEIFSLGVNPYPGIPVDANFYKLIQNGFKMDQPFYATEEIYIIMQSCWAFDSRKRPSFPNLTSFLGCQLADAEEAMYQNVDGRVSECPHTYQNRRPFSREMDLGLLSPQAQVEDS
Description: Inhibition of FLT3 kinase (unknown origin)

The target of assay [5] is T2, Inhibitor of nuclear factor kappa-B kinase subunit beta (Homo sapiens, UniProt O14920).
T2 sequence (O14920 whole entry): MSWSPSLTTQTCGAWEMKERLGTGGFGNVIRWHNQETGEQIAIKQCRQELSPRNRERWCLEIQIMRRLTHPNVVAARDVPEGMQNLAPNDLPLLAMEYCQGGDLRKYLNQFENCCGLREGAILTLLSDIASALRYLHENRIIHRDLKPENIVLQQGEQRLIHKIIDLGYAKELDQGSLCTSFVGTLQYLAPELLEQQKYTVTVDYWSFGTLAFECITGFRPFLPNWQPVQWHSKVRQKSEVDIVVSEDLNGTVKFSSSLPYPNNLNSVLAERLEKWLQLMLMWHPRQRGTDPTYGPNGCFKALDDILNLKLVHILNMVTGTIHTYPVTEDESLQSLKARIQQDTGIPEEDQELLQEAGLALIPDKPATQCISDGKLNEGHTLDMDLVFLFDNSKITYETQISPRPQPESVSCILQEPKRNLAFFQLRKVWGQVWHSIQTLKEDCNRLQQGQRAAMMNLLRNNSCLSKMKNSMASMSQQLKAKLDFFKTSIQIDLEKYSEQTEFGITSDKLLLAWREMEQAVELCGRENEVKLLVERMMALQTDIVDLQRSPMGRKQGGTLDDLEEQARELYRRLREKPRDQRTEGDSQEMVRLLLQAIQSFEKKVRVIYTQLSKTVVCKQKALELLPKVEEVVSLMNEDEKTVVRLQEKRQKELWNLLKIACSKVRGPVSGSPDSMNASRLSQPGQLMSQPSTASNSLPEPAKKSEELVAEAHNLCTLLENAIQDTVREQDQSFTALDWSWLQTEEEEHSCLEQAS
Description: Inhibition of IKKbeta kinase (unknown origin) by Radioisotope system

The target in assay [6] is Mitogen-activated protein kinase 14 (Homo sapiens) (UniProt Q16539). As to the kind of experiment: Inhibition of human SAPK2alpha assessed as residual activity at 10 uM relative to control.
Mitogen-activated protein kinase 14 (Homo sapiens), sequence (Q16539 whole entry): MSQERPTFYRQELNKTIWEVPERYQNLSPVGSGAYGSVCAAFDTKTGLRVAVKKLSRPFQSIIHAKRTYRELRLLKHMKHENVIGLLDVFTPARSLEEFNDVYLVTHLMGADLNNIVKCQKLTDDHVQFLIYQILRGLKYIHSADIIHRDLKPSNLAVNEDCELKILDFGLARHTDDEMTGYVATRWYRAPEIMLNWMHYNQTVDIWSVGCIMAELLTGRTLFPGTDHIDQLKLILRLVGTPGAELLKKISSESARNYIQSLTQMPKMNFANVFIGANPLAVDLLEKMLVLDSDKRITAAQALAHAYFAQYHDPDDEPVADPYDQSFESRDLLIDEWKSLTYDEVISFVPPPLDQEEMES
Assay [7] deals with Dual specificity mitogen-activated protein kinase kinase 7 (Homo sapiens) (UniProt O14733). As to the kind of experiment: Inhibition of human MKK7beta assessed as residual activity at 10 uM relative to control.
Dual specificity mitogen-activated protein kinase kinase 7 (Homo sapiens), sequence (O14733 whole entry): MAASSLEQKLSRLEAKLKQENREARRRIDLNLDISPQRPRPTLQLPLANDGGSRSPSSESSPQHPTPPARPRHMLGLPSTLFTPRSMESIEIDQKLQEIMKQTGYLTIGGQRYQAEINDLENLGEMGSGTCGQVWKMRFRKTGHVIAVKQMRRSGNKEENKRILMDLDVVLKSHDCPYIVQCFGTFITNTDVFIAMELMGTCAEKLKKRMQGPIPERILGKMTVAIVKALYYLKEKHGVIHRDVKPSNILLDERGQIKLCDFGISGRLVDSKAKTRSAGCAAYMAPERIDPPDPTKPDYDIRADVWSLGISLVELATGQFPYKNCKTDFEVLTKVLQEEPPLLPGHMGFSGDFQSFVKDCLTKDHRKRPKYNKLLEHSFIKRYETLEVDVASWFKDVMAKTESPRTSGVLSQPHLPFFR
In assay [8] the target is Tyrosine-protein kinase JAK3 (Homo sapiens) (UniProt P52333). Kind of assay: Inhibition of human JAK3 assessed as residual activity at 10 uM relative to control.
Assay [9] concerns the target Mitogen-activated protein kinase 12 (Homo sapiens) (UniProt P53778). Kind of assay: Inhibition of human SAPK3 assessed as residual activity at 10 uM relative to control.
Assay [10] concerns the target Dual specificity mitogen-activated protein kinase kinase 4 (Mus musculus) (UniProt P47809). Kind of assay: Inhibition of mouse MKK4 assessed as residual activity at 10 uM relative to control.
The target in assay [11] is Tyrosine-protein kinase JAK1 (Homo sapiens) (UniProt P23458). As to the kind of experiment: Inhibition of human JAK1 assessed as residual activity at 10 uM relative to control.
The target of assay [12] is Inhibitor of nuclear factor kappa-B kinase subunit beta (Homo sapiens) (UniProt O14920). As to the kind of experiment: Inhibition of human IKKbeta assessed as residual activity at 1 uM relative to control.
The target in assay [13] is Dual specificity mitogen-activated protein kinase kinase 6 (Homo sapiens) (UniProt P52564). Kind of assay: Inhibition of human MKK6 assessed as residual activity at 10 uM relative to control.
Assay [14] addresses MAP kinase-activated protein kinase 2 (Homo sapiens) (UniProt P49137). As to the kind of experiment: Inhibition of human MAPKAP-K2 assessed as residual activity at 10 uM relative to control.
Assay [15] concerns the target Mitogen-activated protein kinase 9 (Homo sapiens) (UniProt P45984). Kind of assay: Inhibition of human JNK2alpha2 assessed as residual activity at 10 uM relative to control.
The target of assay [16] is Receptor-type tyrosine-protein kinase FLT3 (Homo sapiens) (UniProt P36888). Kind of assay: Inhibition of human Flt3 assessed as residual activity at 10 uM relative to control.
The target in assay [17] is Inhibitor of nuclear factor kappa-B kinase subunit alpha (Homo sapiens) (UniProt O15111). As to the kind of experiment: Inhibition of human IKKalpha assessed as residual activity at 10 uM relative to control.
Assay [18] has as its target Tyrosine-protein kinase Lyn (Homo sapiens) (UniProt P07948). Kind of assay: Inhibition of human Lyn assessed as residual activity at 10 uM relative to control.
In assay [19] the target is Tyrosine-protein kinase Lck (Homo sapiens) (UniProt P06239). As to the kind of experiment: Inhibition of human Lck assessed as residual activity at 10 uM relative to control.
Tyrosine-protein kinase Lck (Homo sapiens), sequence (P06239 2-509 limits assumed): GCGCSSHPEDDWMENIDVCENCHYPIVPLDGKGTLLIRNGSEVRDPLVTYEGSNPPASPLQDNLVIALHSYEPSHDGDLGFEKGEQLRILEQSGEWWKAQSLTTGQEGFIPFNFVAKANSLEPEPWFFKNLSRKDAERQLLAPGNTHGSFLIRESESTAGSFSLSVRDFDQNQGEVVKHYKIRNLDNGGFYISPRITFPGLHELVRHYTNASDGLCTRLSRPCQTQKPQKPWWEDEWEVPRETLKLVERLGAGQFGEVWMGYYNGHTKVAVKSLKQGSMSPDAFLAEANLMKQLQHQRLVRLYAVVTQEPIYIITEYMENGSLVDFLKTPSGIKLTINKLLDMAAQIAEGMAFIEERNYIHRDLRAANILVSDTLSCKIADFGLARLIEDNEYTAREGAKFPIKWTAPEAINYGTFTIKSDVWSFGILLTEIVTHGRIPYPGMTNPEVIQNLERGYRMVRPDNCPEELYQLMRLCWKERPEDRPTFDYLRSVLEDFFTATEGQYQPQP
Assay [20] concerns the target Mitogen-activated protein kinase 13 (Homo sapiens) (UniProt O15264). As to the kind of experiment: Inhibition of human SAPK4 assessed as residual activity at 10 uM relative to control.
The target in assay [21] is Mitogen-activated protein kinase 11 (Homo sapiens) (UniProt Q15759). Kind of assay: Inhibition of human SAPK2beta assessed as residual activity at 10 uM relative to control.
The target of assay [22] is Ribosomal protein S6 kinase alpha-5 (Homo sapiens) (UniProt O75582). As to the kind of experiment: Inhibition of human MSK1 assessed as residual activity at 10 uM relative to control.
Assay [23] deals with Mitogen-activated protein kinase 8 (Homo sapiens) (UniProt P45983). Kind of assay: Inhibition of human JNK1alpha1 assessed as residual activity at 10 uM relative to control.
Mitogen-activated protein kinase 8 (Homo sapiens), sequence (P45983 whole entry): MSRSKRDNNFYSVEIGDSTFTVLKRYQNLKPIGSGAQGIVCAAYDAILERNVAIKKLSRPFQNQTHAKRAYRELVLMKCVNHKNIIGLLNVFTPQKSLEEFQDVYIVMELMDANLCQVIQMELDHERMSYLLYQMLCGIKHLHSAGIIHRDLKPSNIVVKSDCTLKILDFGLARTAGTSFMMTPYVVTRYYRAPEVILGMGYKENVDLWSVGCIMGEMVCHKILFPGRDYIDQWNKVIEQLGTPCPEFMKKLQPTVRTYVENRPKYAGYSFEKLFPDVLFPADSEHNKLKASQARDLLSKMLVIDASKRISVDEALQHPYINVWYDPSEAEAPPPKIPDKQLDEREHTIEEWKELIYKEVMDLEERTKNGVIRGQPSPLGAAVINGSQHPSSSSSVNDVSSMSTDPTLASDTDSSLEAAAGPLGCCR
Assay [24] has as its target Rho-associated protein kinase 2 (Homo sapiens) (UniProt O75116). As to the kind of experiment: Inhibition of human ROCK-2 assessed as residual activity at 10 uM relative to control.
Assay [25] concerns the target Non-receptor tyrosine-protein kinase TYK2 (Homo sapiens) (UniProt P29597). As to the kind of experiment: Inhibition of human TYK2 assessed as residual activity at 10 uM relative to control.
For assay [26], the target named is Tyrosine-protein kinase BTK (Homo sapiens) (UniProt Q06187). As to the kind of experiment: Inhibition of human BTK assessed as residual activity at 10 uM relative to control.
The species entered for the next assay is Homo sapiens. As to the kind of experiment: Inhibition of human PKA assessed as residual activity at 10 uM relative to control.
Assay [27] deals with T2, Inhibitor of nuclear factor kappa-B kinase subunit beta. This is another data set of the same source.
Description: Inhibition of IKKbeta kinase (unknown origin) by Lance ULight system

pIC50: −log10 of the molar value.

MAP kinase-activated protein kinase 2 (Homo sapiens), sequence (P49137 whole entry, looked up): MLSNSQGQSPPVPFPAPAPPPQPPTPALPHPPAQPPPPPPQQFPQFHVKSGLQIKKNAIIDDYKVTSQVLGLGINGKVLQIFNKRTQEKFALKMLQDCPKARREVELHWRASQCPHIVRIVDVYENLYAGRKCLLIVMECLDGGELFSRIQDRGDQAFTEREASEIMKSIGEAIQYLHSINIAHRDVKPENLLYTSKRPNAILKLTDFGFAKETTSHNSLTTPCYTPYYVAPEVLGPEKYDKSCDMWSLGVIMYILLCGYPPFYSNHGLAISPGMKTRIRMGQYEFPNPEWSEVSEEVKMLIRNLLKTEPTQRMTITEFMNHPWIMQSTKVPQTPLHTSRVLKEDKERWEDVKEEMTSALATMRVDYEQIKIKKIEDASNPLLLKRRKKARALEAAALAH
Rho-associated protein kinase 2 (Homo sapiens), sequence (O75116 whole entry, looked up): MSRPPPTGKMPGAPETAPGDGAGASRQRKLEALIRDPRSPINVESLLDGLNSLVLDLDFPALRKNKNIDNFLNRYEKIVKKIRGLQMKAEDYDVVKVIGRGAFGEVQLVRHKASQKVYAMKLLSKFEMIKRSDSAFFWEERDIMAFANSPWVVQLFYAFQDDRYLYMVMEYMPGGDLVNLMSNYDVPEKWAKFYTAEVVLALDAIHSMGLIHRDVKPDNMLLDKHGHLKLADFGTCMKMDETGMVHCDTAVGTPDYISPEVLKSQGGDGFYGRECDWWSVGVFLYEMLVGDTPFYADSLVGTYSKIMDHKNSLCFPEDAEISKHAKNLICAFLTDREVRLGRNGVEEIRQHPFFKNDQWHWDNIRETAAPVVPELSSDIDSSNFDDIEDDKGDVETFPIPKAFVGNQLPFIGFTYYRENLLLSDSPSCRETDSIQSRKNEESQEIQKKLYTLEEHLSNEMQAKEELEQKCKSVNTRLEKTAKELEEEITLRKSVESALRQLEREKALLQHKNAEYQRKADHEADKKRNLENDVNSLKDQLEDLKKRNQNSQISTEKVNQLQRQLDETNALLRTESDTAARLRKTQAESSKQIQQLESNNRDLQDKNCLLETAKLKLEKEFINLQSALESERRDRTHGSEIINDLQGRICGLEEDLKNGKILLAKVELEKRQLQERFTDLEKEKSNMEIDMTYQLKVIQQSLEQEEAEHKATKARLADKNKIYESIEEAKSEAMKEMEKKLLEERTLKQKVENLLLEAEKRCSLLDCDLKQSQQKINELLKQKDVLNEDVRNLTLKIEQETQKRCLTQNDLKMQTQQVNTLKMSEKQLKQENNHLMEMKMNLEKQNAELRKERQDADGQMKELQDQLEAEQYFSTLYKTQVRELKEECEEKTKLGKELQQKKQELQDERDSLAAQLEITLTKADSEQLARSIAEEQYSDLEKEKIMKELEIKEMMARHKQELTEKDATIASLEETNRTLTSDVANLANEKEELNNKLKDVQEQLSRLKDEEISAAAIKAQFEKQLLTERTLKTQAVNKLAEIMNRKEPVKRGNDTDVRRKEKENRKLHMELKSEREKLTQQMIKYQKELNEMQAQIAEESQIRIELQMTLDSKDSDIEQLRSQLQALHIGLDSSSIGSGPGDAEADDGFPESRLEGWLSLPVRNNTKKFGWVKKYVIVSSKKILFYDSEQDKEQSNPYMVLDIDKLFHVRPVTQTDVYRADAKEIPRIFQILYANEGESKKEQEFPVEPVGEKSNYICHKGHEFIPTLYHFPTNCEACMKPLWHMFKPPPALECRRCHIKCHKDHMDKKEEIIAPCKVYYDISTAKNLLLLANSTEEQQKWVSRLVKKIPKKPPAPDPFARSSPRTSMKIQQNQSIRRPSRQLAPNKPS
Dual specificity mitogen-activated protein kinase kinase 4 (Mus musculus), sequence (P47809 whole entry): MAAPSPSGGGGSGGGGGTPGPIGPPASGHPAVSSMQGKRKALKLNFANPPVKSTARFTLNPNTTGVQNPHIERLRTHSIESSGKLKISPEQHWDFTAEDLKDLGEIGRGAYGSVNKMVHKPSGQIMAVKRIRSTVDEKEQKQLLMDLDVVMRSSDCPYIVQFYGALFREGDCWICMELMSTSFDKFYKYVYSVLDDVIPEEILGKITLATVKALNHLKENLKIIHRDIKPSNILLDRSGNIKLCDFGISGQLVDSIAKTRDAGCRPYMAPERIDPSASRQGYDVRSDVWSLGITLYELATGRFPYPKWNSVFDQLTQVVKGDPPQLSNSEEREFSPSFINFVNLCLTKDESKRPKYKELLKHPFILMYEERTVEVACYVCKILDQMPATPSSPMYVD
Mitogen-activated protein kinase 9 (Homo sapiens), sequence (P45984 whole entry, looked up): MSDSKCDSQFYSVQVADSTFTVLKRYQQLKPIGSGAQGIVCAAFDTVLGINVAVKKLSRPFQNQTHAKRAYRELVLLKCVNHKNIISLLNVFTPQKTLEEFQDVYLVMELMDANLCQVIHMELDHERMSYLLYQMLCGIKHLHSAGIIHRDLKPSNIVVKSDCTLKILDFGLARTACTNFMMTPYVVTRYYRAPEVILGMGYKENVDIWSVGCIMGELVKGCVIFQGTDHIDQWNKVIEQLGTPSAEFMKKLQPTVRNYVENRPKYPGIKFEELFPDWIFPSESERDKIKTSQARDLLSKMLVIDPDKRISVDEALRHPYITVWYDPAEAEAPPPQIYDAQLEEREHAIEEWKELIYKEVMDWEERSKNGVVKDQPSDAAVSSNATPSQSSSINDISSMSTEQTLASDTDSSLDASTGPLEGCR
Tyrosine-protein kinase Lyn (Homo sapiens), sequence (P07948 2-512 limits assumed): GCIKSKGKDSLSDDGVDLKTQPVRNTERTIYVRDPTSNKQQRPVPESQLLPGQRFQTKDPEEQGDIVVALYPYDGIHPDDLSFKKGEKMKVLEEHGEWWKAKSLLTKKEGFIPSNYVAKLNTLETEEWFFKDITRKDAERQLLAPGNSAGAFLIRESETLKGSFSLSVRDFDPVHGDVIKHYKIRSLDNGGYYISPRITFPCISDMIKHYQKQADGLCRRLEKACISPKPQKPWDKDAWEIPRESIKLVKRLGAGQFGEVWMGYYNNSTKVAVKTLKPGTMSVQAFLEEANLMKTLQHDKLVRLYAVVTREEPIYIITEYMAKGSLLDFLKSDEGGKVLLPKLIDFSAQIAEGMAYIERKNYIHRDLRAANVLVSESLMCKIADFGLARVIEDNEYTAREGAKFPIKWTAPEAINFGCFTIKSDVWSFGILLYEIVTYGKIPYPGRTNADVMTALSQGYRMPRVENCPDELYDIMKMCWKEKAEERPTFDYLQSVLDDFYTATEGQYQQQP

For `O=C1C=CC(=O)N1Nc1ncnc2scc(-c3cccs3)c12`, the negative-log IC50 (pIC50) – broadly, the IC50 on a negative log10 scale, so that one unit is a factor of ten – in the assay with RAW264.7 [1] is less than 5.00. Also, the IC50 result with RAW264.7 [2] is “Not Active”.
As for `CC1=CC(=O)N(Nc2nc(-c3cccs3)nc3scc(-c4ccc(OCCN5CCCCC5)cc4)c23)C1=O.Cl`, the results for the pIC50 (in the assay with RAW264.7 [3]; in the assay on RAW264.7 [1]; in assay [4]) were 5.67, 5.77 and 7.07, respectively. In assay [5], the IC50 result is “Not Active”.
Turning to `COc1cccc2nc(-c3cccs3)nc(NN3C(=O)C=C(C)C3=O)c12` [AS-602868], the figures for the negative-log IC50 (pIC50) in the assay with RAW264.7 [3] and with RAW264.7 [1] were 5.48 and 5.36, respectively.
Regarding `CC1=C(C)C(=O)N(Nc2ncnc3scc(-c4cccs4)c23)C1=O`, in the assay with RAW264.7 [1], the pIC50 is less than 5.00. Moreover, the IC50 result in the assay with RAW264.7 [2] is on record as “Not Active”.
For the molecule `COc1cccc(-c2nc(NN3C(=O)C=C(C)C3=O)c3c(-c4cccs4)csc3n2)c1`, the pIC50 in the assay on RAW264.7 [3] is 5.91; in the assay on RAW264.7 [1], 5.46.
Turning to `CC1=CC(=O)N(Nc2nc(-c3ccncc3)nc3scc(-c4cccs4)c23)C1=O`, the figures for the negative-log IC50 (pIC50) in the assay with RAW264.7 [3] and with RAW264.7 [1] were less than 5.00 and 5.68, respectively.
On the same counts, the results for `COc1ccc(-c2nc(NN3C(=O)C=C(C)C3=O)c3c(-c4cccs4)csc3n2)cc1` are 5.86 and 5.55.
In turn, `O=C1c2ccncc2C(=O)N1Nc1ncnc2scc(-c3cccs3)c12` gave a negative logarithm of the IC50 (pIC50) in the assay on RAW264.7 [1] of less than 5.00. In the assay on RAW264.7 [2], the IC50 result is “Not Active”.
For `CC1=CC(=O)N(Nc2nc(-c3cccs3)nc3scc(-c4ccc(O)cc4)c23)C1=O`, the pIC50 with RAW264.7 [3] was 5.88; in the assay with RAW264.7 [1], 6.09; in assay [4], 6.12. Further, the IC50 entry in [5] was “Not Active”.
Take `CC1=CC(=O)N(Nc2nc(-c3cccs3)nc3scc(-c4cccc(OCCN5CCCCC5)c4)c23)C1=O`: the Activity in assay [6] came out at 96%; in assay [7] it was 108%; in assay [8] it was 112%; in assay [9] it was 99%; in assay [10], 112%; in [11], 111%. In addition, the Activity in [12] was found to be 84%; in assay [13], 96%; in [14], 94%; in [15] it was 117%; in assay [16], 4%; in [17] it was 98%. Also, the Activity in assay [18] was 81%; in [19], 74%; in assay [20] it was 100%; in assay [21], 103%; in assay [22], 102%; in assay [23], 93%. Besides, the Activity in assay [24] stood at 96%; in assay [25], 87%; in assay [26], 100%; in the assay listed under Homo sapiens it was 126%. Besides, the pIC50 in the assay on RAW264.7 [3] was 5.53; with RAW264.7 [1] it was 5.67; in assay [4] it was 6.88.
Consider `CC1=CC(=O)N(Nc2ncnc3scc(-c4cccs4)c23)C1=O`, for which the pIC50 was less than 5.00 in the assay on RAW264.7 [3] and 5.60 in the assay on RAW264.7 [1].
For `CC1=CC(=O)N(Nc2nc(C3CC3)nc3scc(-c4cccs4)c23)C1=O` the same measures were 5.36 and 5.51.
As to `CC1=CC(=O)N(Nc2nc(-c3cccs3)nc3scc(-c4cccc(O)c4)c23)C1=O`, the pIC50 with RAW264.7 [3] is 5.57; in the assay with RAW264.7 [1], 5.91; in [4], 6.31. For the same molecule, the IC50 result in assay [5] is “Not Active”.
With `CC1=CC(=O)N(Nc2nc(-c3cccs3)nc3scc(-c4cccs4)c23)C1=O`, the pIC50 was 6.15 in the assay with RAW264.7 [3] and 5.66 with RAW264.7 [1].
`O=C1c2ccccc2C(=O)N1Nc1ncnc2scc(-c3cccs3)c12` gave a pIC50 in the assay with RAW264.7 [1] of less than 5.00. The IC50 entry with RAW264.7 [2] is recorded as “Not Active”.
Take `CC1=CC(=O)N(Nc2nc(-c3cccs3)nc3sccc23)C1=O`: the pIC50 was less than 4.30 in assay [27], 5.05 with RAW264.7 [3] and 5.16 with RAW264.7 [1]. The IC50 entry in assay [5] is “Not Active”.
Take `CCOC(=O)Cc1csc2nc(-c3cccs3)nc(NN3C(=O)C=C(C)C3=O)c12`: the pIC50 is less than 4.30 in assay [27], 5.28 in the assay with RAW264.7 [3], 5.29 in the assay on RAW264.7 [1] and 6.17 in assay [4]. In addition, the IC50 entry in [5] is recorded as “Not Active”.
Consider `CC1=CC(=O)N(Nc2nc(-c3ccccc3)nc3scc(-c4cccs4)c23)C1=O`, for which the pIC50 is 5.95 in the assay on RAW264.7 [3] and 5.50 in the assay on RAW264.7 [1].
For `CC1=CC(=O)N(Nc2nc(-c3ccco3)nc3scc(-c4cccs4)c23)C1=O` the same measures were 5.40 and 5.28.

The record behind these values is ChEMBL document CHEMBL3286226, “Discovery of thienopyrimidine-based FLT3 inhibitors from the structural modification of known IKKβ inhibitors” (Bioorg Med Chem Lett, 2014).
